Measurements: patent EP0437336B1, “Biophosphoryl hydrazines and their use as pesticides” (priority 1990, dated 1991)
Values after ≈ are worked out from the molar mass of the structure shown. Like-named read-outs stand apart in the source and are kept apart here.

How the values were obtained:
Green Peach Aphid = test: Biological Method D: Foliar Insecticidal Activity Test, aphid test; type: in vivo, Myzus persicae; set-up: key: I = inactive at concentration listed
Mexican Bean Beetle = test: Biological Method D: Foliar Insecticidal Activity Test, Mexican Bean Beetle test; type: in vivo, Epilachna varivestis; conditions: Epilachna varivestis, Method D foliar test, Mexican Bean Beetle
[1] = test system: southern corn rootworm, Diabrotica undecimpunctata howardi; test: Biological Method A: Corn Rootworm Screening Test (treated non-aggressive soil); conditions: soil concentration giving 90% mortality, 10 days at 27°C
[2] = test system: southern corn rootworm, Diabrotica undecimpunctata howardi; conditions: for foliar systemic nonagressive Method B crw % control at 0.56 kg/ha (0.5 lb/acre): percent control relative to infested check, from root damage ratings, 14 days post-spraying; for pest or weed control at 560 g/ha: Diabrotica undecimpunctata, in Zea mays, foliar, 336 h, read-out: foliar systemic nonagressive Method B crw % control at 0.56 kg/ha (0.5 lb/acre)
[3] = test system: southern corn rootworm, Diabrotica undecimpunctata howardi; conditions: at-planting soil application
Boll Weevil [4] = test: Biological Method D: Foliar Insecticidal Activity Test, boll weevil test; type: in vivo, Anthonomous grandis; set-up: key: I = inactive at concentration listed
Two-Spotted Spider Mite = test: Biological Method D: Foliar Insecticidal Activity Test, mite test; type: in vivo, Tetranychus urticae; set-up: key to LC50 TSM: I = inactive at concentration listed; conditions: Method D foliar test, Two-Spotted Spider Mite; for LC50: Tetranychus urticae, read-out: LC50 TSM
Southern Armyworm = test: Biological Method D: Foliar Insecticidal Activity Test, Southern Armyworm test; type: in vivo, Spodoptera eridania; set-up: key: I = inactive at concentration listed
Boll Weevil [5] = test: Biological Method D: Foliar Insecticidal Activity Test, boll weevil test; type: in vivo, Anthonomous grandis; conditions: Method D foliar test, Boll Weevil
[6] = 48 hrs, read-out: LC50 BB 48 hrs.
[7] = 96 hrs, read-out: LC50 BB 96 hrs

SMILES	LC50 GPA (Green Peach Aphid)	LC50 (Mexican Bean Beetle; [6]) [µg/mL]	LC50 (Mexican Bean Beetle; [7]) [µg/mL]	primary nonagressive Method A crw LC90 [1] [ppm]	foliar systemic nonagressive Method B crw % control at 0.56 kg/ha (0.5 lb/acre) [2] [%]	secondary aggressive Method C crw LC50 ([3]; rated 17 days post-infestation) [kg/ha]	secondary aggressive Method C crw LC50 ([3]; value in brackets) [lb/acre]	LC50 BW 48 hrs (Boll Weevil [4])	LC50 BW 96 hrs (Boll Weevil [4])	LC50 TSM (Two-Spotted Spider Mite)	LC50 AW 48 hrs (Southern Armyworm)	LC50 AW 96 hrs (Southern Armyworm)	LC50 BW 96 hrs (Boll Weevil [5]) [ppm]	pest or weed control at 560 g/ha [2] [%]	LC50 (Two-Spotted Spider Mite) [µg/mL]	LC50 BW 48 hrs (Boll Weevil [5]; 48 hrs) [ppm]
CCOP(=S)(NNP(=S)(OCC)SC(C)C)OCC (centres unmarked) [Compound 20]	I	110 (≈ 300 µM)	52 (≈ 142 µM)	0.40	50	1.01	0.90	I	I	I	I	I				
CCOP(=S)(NNP(=S)(OCC)OCC(C)C)OCC (centres unmarked) [Compound 11, N-(O,O-diethylthiophosphoryl) N′-(O-ethyl O-isobutylthiophosphoryl) hydrazine]	I	150 (≈ 412 µM)	60 (≈ 165 µM)	<0.1	53	0.36	0.32	I		I	I	I	740			
CCCOP(=S)(NNP(=S)(OC(C)C)OC(C)C)OCCC [Compound 16, reference compound]	I	150 (≈ 382 µM)	62 (≈ 158 µM)	0.95		1.03	0.92	I	I	I	I	I		46		
CCCOP(=S)(NNP(=S)(OCC)OC(C)CC)OCCC (centres unmarked) [Compound 19, N-(O,O-dipropylthiophosphoryl) N′-(O-ethyl O-secbutylthiophosphoryl) hydrazine]	I	78 (≈ 199 µM)	62 (≈ 158 µM)	<0.1		0.28	0.25	I	I	I	I	I		54		
CCOP(=S)(NNP(=S)(OC(C)C)OC(C)C)OCC [Compound 9, reference compound]	I	300 (≈ 823 µM)	150 (≈ 412 µM)	0.41	64	1.1	0.98	I	I		I	I			76 (≈ 209 µM)	
CCOP(=S)(NNP(=S)(OCC)OC(C)CC)OCC (centres unmarked) [Compound 8]	I	500 (≈ 1370 µM)	84 (≈ 231 µM)	<0.1	53	0.81	0.72	I			I	I	740		335 (≈ 919 µM)	
CCCCOP(=S)(NNP(=S)(OCCC)OCCC)OCC (centres unmarked) [Compound 17]	I	150 (≈ 382 µM)	62 (≈ 158 µM)	1.1		1.02	0.91	I	I	I	I	I		38		
CCCOP(=S)(NNP(=S)(OCCC)OCCC)OCCC [Compound 14, reference compound]	I	500 (≈ 1270 µM)	52 (≈ 132 µM)	0.39		1.12	1.0	I	I	I	I	I		46		
CCCOP(=S)(NNP(=S)(OCC)OCC(C)C)OCCC (centres unmarked) [Compound 18, N-(O,O-dipropylthiophosphoryl) N′-(O-ethyl O-isobutylthiophosphoryl) hydrazine]	I	150 (≈ 382 µM)	78 (≈ 199 µM)	<0.1		0.36	0.32	I	I	I	I	I		61		
CCOP(=S)(NNP(=S)(OCC)O[C@H]1C[C@@H](C)CC[C@@H]1C(C)C)OCC (some centres unmarked) [Compound 35]	I	250 (≈ 560 µM)	52 (≈ 116 µM)	0.77				I	I	I	I	I		38		
CCOP(=S)(NNP(=S)(OCC)OCC(C)(C)C)OCC (centres unmarked) [Compound 38, N-(O,O-diethylthiophosphoryl) N′-(O-ethyl O-neopentylthiophosphoryl) hydrazine]	I	60 (≈ 159 µM)	60 (≈ 159 µM)	0.07		0.5	0.45				I	I	740	46	150 (≈ 396 µM)	740
CCCNP(=S)(NNP(=S)(OCC)OCC)OCC (centres unmarked) [Compound 24]	I	27 (≈ 77.3 µM)	31 (≈ 88.7 µM)	1.1	38			I		I	I	I	380			
